Source: the NIST ThermoML archive (doi:10.1016/j.jct.2017.07.026)
Numbers after ± are expanded uncertainties.

Tests used:
[1] = 298.15 K, Liquid
[2] = mn = molality of the nth substance listed, in mol/kg; conditions: 298.15 K, 100 kPa, Liquid, Vibrating tube method

Compound: CCCCCC(C)C [2-methylheptane]
- mass density ([1]; 100 kPa, Vibrating tube method): 693.9 ± 1.4 kg/m3

Compound: CCCCCC(C)C [2-methylheptane] + CO
- mass density ([2]; m1 = 0.1174): 784.76 ± 0.33 kg/m3
- mass density ([2]; m1 = 0.1406): 784.42 ± 0.33 kg/m3
- mass density ([2]; m1 = 0.2155): 783.3 ± 0.33 kg/m3
- mass density ([2]; m1 = 0.3711): 781.09 ± 0.33 kg/m3
- mass density ([2]; m1 = 0.4177): 780.47 ± 0.33 kg/m3
- mass density ([2]; m1 = 0.4497): 780.04 ± 0.33 kg/m3
- mass density ([2]; m1 = 0.5259): 779.01 ± 0.33 kg/m3
- mass density ([2]; m1 = 0.5815): 778.29 ± 0.34 kg/m3
- mass density ([2]; m1 = 0.639): 777.54 ± 0.34 kg/m3
- mass density ([2]; m1 = 0.7339): 776.35 ± 0.34 kg/m3

Compound: CCCC(C)C [2-methylpentane]
- mass density ([1]; 100 kPa, Vibrating tube method): 648.48 ± 0.67 kg/m3

Compound: CCCC(C)C [2-methylpentane] + CO
- mass density ([2]; m1 = 0.02577): 786.15 ± 0.33 kg/m3
- mass density ([2]; m1 = 0.09112): 785.08 ± 0.33 kg/m3
- mass density ([2]; m1 = 0.1002): 784.95 ± 0.33 kg/m3
- mass density ([2]; m1 = 0.1267): 784.51 ± 0.33 kg/m3
- mass density ([2]; m1 = 0.1833): 783.59 ± 0.33 kg/m3
- mass density ([2]; m1 = 0.2247): 782.95 ± 0.33 kg/m3
- mass density ([2]; m1 = 0.2392): 782.73 ± 0.33 kg/m3
- mass density ([2]; m1 = 0.3355): 781.24 ± 0.33 kg/m3
- mass density ([2]; m1 = 0.3506): 781.02 ± 0.33 kg/m3
- mass density ([2]; m1 = 0.3833): 780.53 ± 0.33 kg/m3
- mass density ([2]; m1 = 0.4498): 779.5 ± 0.33 kg/m3
- mass density ([2]; m1 = 0.4937): 778.85 ± 0.34 kg/m3
- mass density ([2]; m1 = 0.5032): 778.68 ± 0.34 kg/m3
- mass density ([2]; m1 = 0.5629): 777.84 ± 0.34 kg/m3
- mass density ([2]; m1 = 0.6343): 776.78 ± 0.34 kg/m3

Compound: CCC(C)CC [3-methylpentane]
- mass density ([1]; 100 kPa, Vibrating tube method): 659.76 ± 0.68 kg/m3

Compound: CCC(C)CC [3-methylpentane] + CO
- mass density ([2]; m1 = 0.02902): 786.12 ± 0.33 kg/m3
- mass density ([2]; m1 = 0.04025): 785.97 ± 0.33 kg/m3
- mass density ([2]; m1 = 0.06079): 785.65 ± 0.33 kg/m3
- mass density ([2]; m1 = 0.07925): 785.37 ± 0.33 kg/m3
- mass density ([2]; m1 = 0.1106): 784.93 ± 0.33 kg/m3
- mass density ([2]; m1 = 0.2045): 783.51 ± 0.33 kg/m3
- mass density ([2]; m1 = 0.307): 782.05 ± 0.33 kg/m3
- mass density ([2]; m1 = 0.3825): 781.03 ± 0.33 kg/m3
- mass density ([2]; m1 = 0.3944): 780.81 ± 0.34 kg/m3
- mass density ([2]; m1 = 0.4638): 779.87 ± 0.33 kg/m3
- mass density ([2]; m1 = 0.5751): 778.42 ± 0.33 kg/m3
- mass density ([2]; m1 = 0.6145): 777.81 ± 0.34 kg/m3
- mass density ([2]; m1 = 0.7207): 776.46 ± 0.34 kg/m3

Compound: CCCCCCC [heptane]
- mass density ([1]; 101.33 kPa, Pycnometric method): 679.455 ± 0.22 kg/m3

Compound: CO [methanol]
- mass density ([1]; 100 kPa, Vibrating tube method): 786.57 ± 0.33 kg/m3

Compound: CO [methanol] + CCC(C)CC
- mass density ([2]; m2 = 0): 786.57 ± 0.33 kg/m3

Compound: CO [methanol] + CCCC(C)C
- mass density ([2]; m2 = 0): 786.57 ± 0.33 kg/m3

Compound: CO [methanol] + CCCCCC(C)C
- mass density ([2]; m2 = 0): 786.57 ± 0.33 kg/m3

Compound: Cc1ccccc1 [toluene]
- mass density ([1]; 101.33 kPa, Pycnometric method): 862.214 ± 0.26 kg/m3
